One data set relates to HIV-1. The note with it: in combination with recombinant soluble CD4 castanospermine and recombinant interferon-α; cited from earlier work.
A further data set concerns HIV replication. As to conditions: in combination with PMPA, d4T, ddC, nelfinavir, ritonavir, saquinavir; cited from earlier work.
For data set [1] the following is noted: in tablets, six months at 40° C./75% RH, packaged and stored with desiccant.
Setting [2] is: each dose regimen greater or equal to 200 mg, two weeks, monotherapy.

SMILES strings stand for the structures. Where a name gives a salt, the structure may show the parent alone.

In the case of `Nc1nc(=O)n([C@@H]2CS[C@H](CO)O2)cc1F` (single isomer, unassigned) [Emtricitabine], in the data set on HIV (setting [2]), the viral suppression is on record as no less than 98% and the “viral suppression (log 10)” value is reported as no less than 1.75 log 10. In the data set with HIV (once-a-day dose of 200 mg), the “reduction of viral load, average” value was found to be 99% and the “reduction of viral load, average (log 10)” value was 1.92 log 10.

For `Cc1cn([C@H]2C[C@H](N=[N+]=[N-])[C@@H](CO)O2)c(=O)[nH]c1=O` [AZT, 3′-azido, 3′-deoxythymidine], the “synergy of antiviral activity in vitro” value with HIV-1 is given as “synergistic antiviral activity”.

As to `CC(C)(C)C(=O)OCOP(=O)(COCCn1cnc2c(N)ncnc21)OCOC(=O)C(C)(C)C` [Adefovir dipivoxil], the “synergy of inhibition of HIV replication” value in the data set on HIV replication was “minor to moderate synergistic inhibition”.

As for `CC(C)OC(=O)OCOP(=O)(CO[C@H](C)Cn1cnc2c(N)ncnc21)OCOC(=O)OC(C)C` [Tenofovir disoproxil fumarate, 9-[(R)-2-[[bis[[(isopropoxycarbonyl)oxy]methoxy]phosphinyl]methoxy]propyl]adenine fumarate (1:1)], the “loss in % label strength (significant defined as ≧5% degradation)” value in data set [1] is on record as “No significant loss”.

Values taken from patent publication US20040224917A1, “Compositions and methods for combination antiviral therapy” (GILEAD SCIENCES, INC., priority 2003, published 2004).
